From patent US20030099674A1 (priority 2001, published 2003)
Where two headings read alike, the source gives them in different places.

Assays:
[1] = Stability of paclitaxel in solutions containing oil and soy lecithin (HPLC purity); format: physicochemical
Protocol: The ethanol solution was mixed with the selected oil. […] The resulting oil solutions were sealed in glass vials and stored at 40° C. or at 60° C.

[2] = Paclitaxel emulsion stability study #2: effect of pH, dry vs liquid emulsions at 40° C.; format: physicochemical; details: pH 4.0 to 8.9, stored at 40° C., HPLC
Protocol: These tests were conducted to select optimal pH's for a dry paclitaxel emulsion.
The fine emulsion was divided into 5 portions. The pH of each portion was adjusted to pH 4.0, 5.6, 6.6, 7.8 or 8.9 using 0.2 N HCl or 0.2 N NaOH solution. Average droplet size of each pH adjusted emulsion was determined using LLS.
The stability evaluation included both dry and liquid emulsions (pre-lyophilization) at each pH. These emulsions were stored sealed in glass vials at 40° C.

[3] = no lecithin, 24 hours at 25° C.
Protocol: The mixtures were agitated for 24 hours at 25° C., and were then filtered through a 0.2 micron filter.

[4] = in the dry emulsions of MCT or sesame oil at a storage temperature of 25° C. or below
Protocol: At each time point including the time 0, a vial was removed from each stability temperature chamber and reconstituted with 0.2 ml deionized water to reform the emulsion.
Along with the dry emulsion samples, the liquid emulsion samples (pre-lyophilization) were also included in this study. The liquid emulsions were stored at −20° C.

CC(=O)O[C@H]1C(=O)[C@@]2(C)[C@H]([C@H](OC(=O)c3ccccc3)[C@]3(O)C[C@H](OC(=O)[C@H](O)[C@@H](NC(=O)c4ccccc4)c4ccccc4)C(C)=C1C3(C)C)[C@]1(OC(C)=O)CO[C@@H]1C[C@@H]2O [paclitaxel]
Purity (% paclitaxel peak area over total peak area) Day 0 ([1]; Corn oil with soy lecithin): 98.7 % paclitaxel peak area over total peak area | Purity (% paclitaxel peak area over total peak area) Day 0 ([1]; Cottonseed oil with soy lecithin): 98.8 % paclitaxel peak area over total peak area | Purity (% paclitaxel peak area over total peak area) Day 0 ([1]; Ethyl oleate with soy lecithin): 97.0 % paclitaxel peak area over total peak area | Purity (% paclitaxel peak area over total peak area) Day 0 ([1]; Miglyol 812N with soy lecithin): 99.3 % paclitaxel peak area over total peak area | Purity (% paclitaxel peak area over total peak area) Day 0 ([1]; Safflower oil with soy lecithin): 98.0 % paclitaxel peak area over total peak area | Purity (% paclitaxel peak area over total peak area) Day 0 ([1]; Sesame oil + oleic acid, with soy lecithin): 98.5 % paclitaxel peak area over total peak area | Purity (% paclitaxel peak area over total peak area) Day 0 ([1]; Sesame oil + vit E, with soy lecithin): 99.0 % paclitaxel peak area over total peak area | Purity (% paclitaxel peak area over total peak area) Day 0 ([1]; Sesame oil + water, with soy lecithin): 99.1 % paclitaxel peak area over total peak area | Purity (% paclitaxel peak area over total peak area) Day 0 ([1]; Sesame oil with soy lecithin): 99.0 % paclitaxel peak area over total peak area | Purity (% paclitaxel peak area over total peak area) Day 0 ([1]; Sesame oil without soy lecithin): 99.2 % paclitaxel peak area over total peak area | Purity (% paclitaxel peak area over total peak area) Day 0 ([1]; Soybean oil with soy lecithin): 99.4 % paclitaxel peak area over total peak area | Purity (% paclitaxel peak area over total peak area) Day 0 ([1]; Vitamin E with soy lecithin): 96.3 % paclitaxel peak area over total peak area | Stability of paclitaxel in dry versus liquid emulsions [2]: more stable than in the liquid emulsions | Solubility at 25° C. ([3]; MCT oil (Miglyol 812N)): 40 mg/g of oil | Solubility at 25° C. ([3]; Sesame oil): 5 mg/g of oil | Time paclitaxel is chemically stable [4]: at least 28 days
